Consider two molecules from patent EP4722213A1, “NITROGEN-CONTAINING FUNCTIONAL GROUP-SUBSTITUTED PYRIDAZINOPYRIDONE DERIVATIVE AND USE THEREOF” (Sichuan Huiyu Pharmaceutical Co., Ltd., priority 2023, dated 2024).

The nature of data set [1]: Rat liver microsomal metabolic stability. Type of data set: in vitro ADME. The conditions noted are these: rat liver microsomes; for half-life at 1 µM: NADPH, 37°C; for CLint scaled at 1 µM: calculated from T1/2, fu defaulted to 1, read-out: CL(liver). In short, it runs like this: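 Rat liver microsomes (1 mg/mL working solution) with test compound (working solution 100 µM) were pre-incubated 5 min at 37 °C, then started with NADPH (4.0 mM working solution). Residual compound measured by LC-MS/MS over time. T1/2 taken from first-order decay, scaled to CLint and hepatic CL with fu = 1.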

A further data set concerns the target T1, CYP2C19 (Homo sapiens, UniProt P33261).
T1 construct: human liver microsomes were used as the CYP450 enzyme source; from tissue; host or cells: human liver microsomes
Briefly: Inhibition of hepatic drug-metabolizing enzymes in human liver microsomes. Type of data set: in vitro ADME. To be noted: human liver microsomes; read-out: Inhibitory activity on drug-metabolizing enzymes (IC50, µM) CYP2C19. The text has this: (§1) The main site of drug metabolism is the liver, and the main component of the mixed-function oxidase system present in the liver is the CYP450 enzyme. This enzyme system causes most clinically observed drug-drug interactions, which in turn leads to an increased incidence of adverse drug reactions. CYP450 is a group of supergene family composed of many isozymes, wherein CYP3A4 acts as a major metabolizing enzyme and is involved in the metabolism of nearly half of clinically used drugs. Similarly, CYP2C9 and CYP2C19 also act as important metabolizing enzymes and are involved in the metabolism of various drugs clinically. Therefore, evaluating the risk of drug-drug interactions by testing the inhibitory activity of compounds on CYP450 enzymes at an early stage can improve the safety of medication use.
(§2) In the present disclosure, human liver microsomes were used as the CYP450 enzyme source. The specific probe substrates for each CYP isoenzyme (wherein CYP3A4 used two substrates, midazolam and testosterone, denoted as CYP3A4-M and CYP3A4-T respectively) were incubated with a series of concentrations of the test compound in the presence of the cofactor NADPH. The production amount of metabolites of probe substrates in the incubation system was determined by LC-MS/MS, and the IC50 values of the test compound against each CYP450 enzyme subtype were calculated to evaluate its inhibitory effect on each CYP450 enzyme subtype. During the experiment, 49 µL of PBS, 50 µL of probe substrate, and 50 µL of human liver microsome working solution were sequentially added to the incubation system, followed by the addition of 1 µL of the test compound working solution at each concentration, and the mixture was mixed well. After pre-incubation at 37°C for 5 min, 50 µL of NADPH was added to initiate the reaction. After incubation for the corresponding time, an appropriate amount of ice-cold acetonitrile containing an internal standard was added to terminate the reaction. The mixture was vortexed to mix well, centrifuged, and the supernatant was taken. The supernatant was injected into LC-MS/MS to determine the production amount of metabolites of the probe substrate. Taking the enzyme activity at the 0-concentration point (characterized by the production amount of metabolites) as 100%, the percentage of residual enzyme activity of metabolites at different concentrations of the test compound was calculated. IC50 was calculated by the residual enzyme activity using Graphpad Prism software.
A general note: Microsomes from liver hold many membrane-bound enzymes, among them those of drug oxidation.

The target in another data set is T2, CYP2C9 (Homo sapiens, UniProt P11712).
T2 construct: human liver microsomes were used as the CYP450 enzyme source; from tissue; host or cells: human liver microsomes
T2 sequence (P11712 whole entry): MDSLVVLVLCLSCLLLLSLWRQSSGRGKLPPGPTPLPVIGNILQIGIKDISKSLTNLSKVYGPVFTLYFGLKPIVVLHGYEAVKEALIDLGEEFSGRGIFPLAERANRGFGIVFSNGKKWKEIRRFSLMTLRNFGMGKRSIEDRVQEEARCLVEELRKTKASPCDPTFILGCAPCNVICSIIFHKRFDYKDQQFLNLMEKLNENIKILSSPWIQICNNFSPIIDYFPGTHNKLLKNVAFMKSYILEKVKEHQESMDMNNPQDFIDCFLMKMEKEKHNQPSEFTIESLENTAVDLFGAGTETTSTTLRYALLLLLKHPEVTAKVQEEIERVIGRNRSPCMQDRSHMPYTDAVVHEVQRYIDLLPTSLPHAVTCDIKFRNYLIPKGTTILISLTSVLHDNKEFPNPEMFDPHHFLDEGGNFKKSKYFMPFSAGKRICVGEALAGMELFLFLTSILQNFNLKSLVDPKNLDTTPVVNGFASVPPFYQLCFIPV
Described as above. The format is in vitro ADME. To be noted: human liver microsomes; read-out: Inhibitory activity on drug-metabolizing enzymes (IC50, µM) CYP2C9.
Text: as §1, §2

Another data set deals with T3, CYP3A4 (Homo sapiens, UniProt P08684).
T3 construct: human liver microsomes were used as the CYP450 enzyme source; from tissue; host or cells: human liver microsomes
T3 sequence (P08684 whole entry): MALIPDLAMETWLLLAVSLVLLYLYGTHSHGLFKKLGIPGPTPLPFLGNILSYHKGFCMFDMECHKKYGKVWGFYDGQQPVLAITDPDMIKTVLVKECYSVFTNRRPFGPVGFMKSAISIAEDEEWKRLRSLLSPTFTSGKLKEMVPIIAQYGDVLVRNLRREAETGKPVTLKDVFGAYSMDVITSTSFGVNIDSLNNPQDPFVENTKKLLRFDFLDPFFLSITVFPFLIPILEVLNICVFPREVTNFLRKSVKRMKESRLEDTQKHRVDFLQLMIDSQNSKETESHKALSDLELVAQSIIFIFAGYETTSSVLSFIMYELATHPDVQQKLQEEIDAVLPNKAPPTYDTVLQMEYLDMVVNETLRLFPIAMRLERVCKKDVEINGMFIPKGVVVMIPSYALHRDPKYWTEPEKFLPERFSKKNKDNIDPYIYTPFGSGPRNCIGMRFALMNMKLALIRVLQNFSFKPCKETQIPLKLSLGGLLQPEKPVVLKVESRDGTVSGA
Briefly: Inhibition of hepatic drug-metabolizing enzymes in human liver microsomes (substrates midazolam and testosterone). Type of data set: in vitro ADME.
Text: as §1, §2

In the next data set the target is T4, SOS1 (Homo sapiens, UniProt Q07889).
T4 sequence (Q07889 1-1333): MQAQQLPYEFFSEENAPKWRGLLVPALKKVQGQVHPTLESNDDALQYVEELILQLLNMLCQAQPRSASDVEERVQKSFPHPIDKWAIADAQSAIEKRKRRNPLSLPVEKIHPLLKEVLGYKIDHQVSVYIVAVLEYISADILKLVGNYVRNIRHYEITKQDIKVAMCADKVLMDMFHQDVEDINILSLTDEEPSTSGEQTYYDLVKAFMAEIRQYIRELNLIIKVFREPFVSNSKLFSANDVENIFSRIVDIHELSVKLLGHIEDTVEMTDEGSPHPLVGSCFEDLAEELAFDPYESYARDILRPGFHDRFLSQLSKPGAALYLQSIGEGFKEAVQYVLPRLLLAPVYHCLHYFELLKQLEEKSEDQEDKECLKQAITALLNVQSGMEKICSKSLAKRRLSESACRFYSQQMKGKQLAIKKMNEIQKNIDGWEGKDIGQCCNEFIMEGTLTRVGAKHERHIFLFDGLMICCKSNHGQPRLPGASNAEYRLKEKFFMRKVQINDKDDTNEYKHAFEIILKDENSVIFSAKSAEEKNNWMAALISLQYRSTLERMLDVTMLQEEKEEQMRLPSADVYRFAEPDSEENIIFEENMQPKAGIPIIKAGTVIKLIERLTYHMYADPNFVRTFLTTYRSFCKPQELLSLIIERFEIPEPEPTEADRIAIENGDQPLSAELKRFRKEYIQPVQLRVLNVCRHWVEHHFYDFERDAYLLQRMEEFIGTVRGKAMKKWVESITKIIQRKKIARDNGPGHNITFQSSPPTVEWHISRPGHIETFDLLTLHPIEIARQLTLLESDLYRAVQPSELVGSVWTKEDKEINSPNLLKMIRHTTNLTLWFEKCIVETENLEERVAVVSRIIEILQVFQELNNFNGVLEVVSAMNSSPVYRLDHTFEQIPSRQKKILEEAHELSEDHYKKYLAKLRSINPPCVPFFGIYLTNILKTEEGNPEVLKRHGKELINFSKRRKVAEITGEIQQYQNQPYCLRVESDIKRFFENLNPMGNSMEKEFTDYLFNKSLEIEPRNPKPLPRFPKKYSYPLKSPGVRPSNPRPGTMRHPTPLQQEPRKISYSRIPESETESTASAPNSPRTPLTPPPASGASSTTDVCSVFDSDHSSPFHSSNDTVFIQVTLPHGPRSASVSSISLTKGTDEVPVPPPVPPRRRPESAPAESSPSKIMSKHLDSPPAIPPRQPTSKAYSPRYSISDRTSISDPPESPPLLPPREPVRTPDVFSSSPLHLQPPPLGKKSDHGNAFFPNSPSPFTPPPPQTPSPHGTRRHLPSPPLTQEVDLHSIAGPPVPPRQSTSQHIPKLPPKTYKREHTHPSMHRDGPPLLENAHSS
Description: biochemical.

A short description of a further data set: Rat pharmacokinetic test. To be noted: plasma, male SD rats, IV 1 mg/kg, PO 5 mg/kg via gavage. The format is in vivo. As to the method:
Male SD rats, weighing 200-250 g, were used and divided into two groups based on the principle of similar body weight, with 3 rats in each of the IV group and the PO group. The IV group was administered the test compound at a dose of 1 mg/kg via intravenous injection, and the PO group was administered the test compound at a dose of 5 mg/kg via gavage. Whole blood was collected from the IV group respectively before administration and at 0.083, 0.25, 0.5, 1, 2, 4, 6, 8, and 24 h after administration; for the PO group, whole blood was collected before administration and at 0.25, 0.5, 1, 2, 4, 6, 8, and 24 h after administration. The blood samples were placed in K2-EDTA anticoagulant tubes, centrifuged (4°C) within 30 min to separate plasma, and stored at -80°C for subsequent testing. During sample processing, an appropriate amount of acetonitrile containing an internal standard was used for protein precipitation, vortexed, and after centrifugation, the supernatant was taken for injection into LC-MS/MS for detection. Based on the measured plasma drug concentrations, the main pharmacokinetic parameters were calculated to evaluate its pharmacokinetic behavior. The main pharmacokinetic parameters were analyzed by the non-compartmental model using WinNonLin 8.3 software.

The nature of data set [2]: Mouse pharmacokinetic test. The conditions noted are these: plasma, female Balb/c mice, IV 1 mg/kg, PO 10 mg/kg via gavage. Type of data set: in vivo. On the procedure:
Female Balb/c mice, weighing 19-21 g, were divided into two groups based on the principle of similar body weight, with 9 mice in each of the IV group and the PO group (for cross blood collection). The IV group was administered the test compound at a dose of 1 mg/kg via intravenous injection, and the PO group was administered the test compound at a dose of 10 mg/kg via gavage. Whole blood was collected from the IV group before administration and at 0.083, 0.25, 0.5, 1, 2, 4, 6, 8, and 24 h after administration; for the PO group, whole blood was collected before administration and at 0.25, 0.5, 1, 2, 4, 6, 8, and 24 h after administration. The blood samples were placed in K2-EDTA anticoagulant tubes, centrifuged (4°C) within 30 minutes to separate plasma, and stored at -80°C for subsequent testing. During sample processing, an appropriate amount of acetonitrile containing an internal standard was used for protein precipitation, vortexed, and after centrifugation, the supernatant was taken for injection into LC-MS/MS for detection. Based on the measured plasma drug concentrations, the main pharmacokinetic parameters were calculated to evaluate its pharmacokinetic behavior. The main pharmacokinetic parameters were analyzed by the non-compartmental model using WinNonLin 8.3 software.

Like-named read-outs stand apart in the source and are kept apart here. Where only a bound is given, the exact number is not on record here.

T1 sequence (P33261 whole entry): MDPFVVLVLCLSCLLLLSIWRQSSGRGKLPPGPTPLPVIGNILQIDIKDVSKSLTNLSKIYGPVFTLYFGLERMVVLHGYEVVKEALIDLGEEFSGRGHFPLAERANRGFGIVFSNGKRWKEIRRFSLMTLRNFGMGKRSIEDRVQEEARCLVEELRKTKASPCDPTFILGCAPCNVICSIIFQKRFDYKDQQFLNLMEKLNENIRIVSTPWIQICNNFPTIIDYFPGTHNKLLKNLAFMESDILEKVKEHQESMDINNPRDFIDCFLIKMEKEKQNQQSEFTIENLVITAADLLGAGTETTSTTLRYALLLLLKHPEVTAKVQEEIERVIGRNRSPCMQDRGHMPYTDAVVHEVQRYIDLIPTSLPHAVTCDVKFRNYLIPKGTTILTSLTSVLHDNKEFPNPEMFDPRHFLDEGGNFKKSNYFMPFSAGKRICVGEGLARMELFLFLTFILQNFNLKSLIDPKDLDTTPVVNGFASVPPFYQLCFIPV

The term half-life denotes the time in which the quantity being followed falls by half. Higher therefore signals slow decline. The IC50 is the concentration at which inhibition is half-maximal. In data set [1], `C[C@@H](Nc1nnc(N)c2cc(=O)n(C3CC3)cc12)c1cccc(C(F)F)c1F` [Example 75, (R)-1-amino-6-cyclopropyl-4-((1-(3-(difluoromethyl)-2-fluorophenyl)ethyl)amino)pyrido[3,4-d]pyridazin-7(6H)-one] registered a half-life at 1 µM of over 300 min. Moreover, the CLint scaled at 1 µM in data set [1] was under 7.23 mL/min/kg. Besides, the half-maximal inhibitory concentration (IC50) at CYP2C19 is over 10 µM; on CYP2C9, over 10 µM; on CYP3A4 (substrate midazolam, read-out: Inhibitory activity on drug-metabolizing enzymes (IC50, µM) CYP3A4-M), over 10 µM; on CYP3A4 (substrate testosterone, read-out: Inhibitory activity on drug-metabolizing enzymes (IC50, µM) CYP3A4-T), over 10 µM; against SOS1, 0.0048 µM.
As a reminder, the bioavailability is the share of a dose that reaches the circulation, judged against a reference dose that is usually intravenous. Read a low bioavailability as little systemic uptake. In the case of `Cc1c(C#N)cccc1[C@@H](C)Nc1nnc(C)c2cnc(N3CCOCC3)cc12` [MRTX0902, reference compound], the half-life at 1 µM in data set [1] worked out at 2.9 min. The CLint scaled at 1 µM in data set [1] is 51.9 mL/min/kg. In addition, the IC50 amounted to 8.62 µM at CYP2C19; 4 µM on CYP2C9; 6.9 µM against CYP3A4 (Inhibitory activity on drug-metabolizing enzymes (IC50, µM) CYP3A4-M, substrate midazolam); 8.75 µM against CYP3A4 (Inhibitory activity on drug-metabolizing enzymes (IC50, µM) CYP3A4-T, substrate testosterone). Further, the figures for the bioavailability (in “Rat pharmacokinetic test”; in data set [2]) were 22.6% and 40.4%, respectively.
